Source: US8883797B2, “Metalloenzyme inhibitor compounds” (Viamet Pharmaceuticals, Inc., priority 2011, dated 2014)
Converted amounts (≈) assume the structure as drawn.

test system: Septoria tritici (ATCC 26517); experiment: Minimum Inhibitory Concentration (MIC) (Septoria tritici), CLSI-based microdilution; type: cell-based; conditions: Zymoseptoria tritici, ATCC26517, 168 h; S. tritici ATCC 26517; 50% growth reduction; 7 days at 22 °C; read-out: Septoria Rating (MIC)
Protocol: C. Minimum Inhibitory Concentration (MIC) (Septoria tritici) Compounds of the present disclosure were assessed for their ability to inhibit the growth of a common strain of the fungal plant pathogen Septoria tritici (ATCC 26517) using a procedure based on a Clinical and Laboratory Standards Institute (CLSI) microdilution assay protocol for filamentous fungi. Stock solutions of the test compounds and standards were prepared in DMSO at 6400 μg/mL. Each stock solution was used to prepare a 2-fold dilution series ranging from 16 to 0.016 μg/mL (total of 11 compound concentrations) in RPMI-1640 (Roswell Park Memorial Institute) medium containing 3-(N-morpholino)propanesulfonic acid (MOPS) buffer and 2% DMSO. A 100 μL aliquot of the dilutions was added to columns 1 (16 μg/mL compound) through 11 (0.016 μg/mL compound) of a 96-well microtiter plate. This format was replicated in a second row of the microtiter plate. Thus, each microtiter plate could include 11 concentrations of four test or control compounds replicated twice. A 100 μL aliquot of RPMI-1640/MOPS/2% DMSO medium was added to column 12 (no compound control) of the microtiter plate. A fresh culture of S. tritici was used to prepare a solution of approximately 5×10^4 colony-forming units per milliliter (cfu/mL) in RPMI/MOPS medium without DMSO. A 100 μL aliquot of this solution was added to all 96 wells in the microtiter plate. […] The assay plates were incubated at 22° C. for seven days in the dark without shaking. […] In each case of Table 3 the rating scale is as follows: […]

| MIC | SMILES |
| --- | --- |
| ≤ 0.5 µg/mL | N#Cc1ccc2nc(C(F)(F)C(O)(Cn3cnnn3)c3ccc(F)cc3F)ccc2c1 (centres unmarked) [Compound 24, 2-(2-(2,4-Difluorophenyl)-1,1-difluoro-2-hydroxy-3-(1H-tetrazol-1-yl)propyl)quinoline-6-carbonitrile] |
| 1.5 to 4 µg/mL (≈ 3.42 to 9.13 µM) | OC(Cn1cnnn1)(c1ccc(F)cc1F)C(F)(F)c1nc(Br)cs1 (centres unmarked) [Compound 2, 1-(4-Bromothiazol-2-yl)-2-(2,4-difluorophenyl)-1,1-difluoro-3-(1H-tetrazol-1-yl)propan-2-ol] |
| 1.5 to 4 µg/mL (≈ 2.99 to 7.98 µM) | OC(Cn1cnnn1)(c1ccc(F)cc1F)C(F)(F)c1ccc2c(OCC(F)(F)F)cccc2n1 (centres unmarked) [Compound 30, 2-(2,4-Difluorophenyl)-1,1-difluoro-3-(1H-tetrazol-1-yl)-1-(5-(2,2,2-trifluoroethoxy)quinolin-2-yl)propan-2-ol] |
| 1.5 to 4 µg/mL (≈ 3.18 to 8.47 µM) | OC(Cn1ncnn1)(c1ccc(F)cc1F)C(F)(F)c1cnc(C#Cc2ccc(F)cc2)cn1 (centres unmarked) [Compound 51, 2-(2,4-difluorophenyl)-1,1-difluoro-1-(5-((4-fluorophenyl)ethynyl)pyrazin-2-yl)-3-(2H-tetrazol-2-yl)propan-2-ol] |
| 1.5 to 4 µg/mL (≈ 3.15 to 8.4 µM) | OC(Cn1ncnn1)(c1ccc(F)cc1F)C(F)(F)c1cnc(CCc2ccc(F)cc2)cn1 (centres unmarked) [Compound 53, 2-(2,4-Difluorophenyl)-1,1-difluoro-1-(5-(4-fluorophenethyl)pyrazin-2-yl)-3-(2H-tetrazol-2-yl)propan-2-ol] |
| 1.5 to 4 µg/mL (≈ 2.84 to 7.58 µM) | OC(Cn1cnnn1)(c1ccc(F)cc1F)C(F)(F)c1ccc(-c2ccc(OCC(F)(F)F)cc2)nc1 (centres unmarked) [Compound 36, 2-(2,4-Difluorophenyl)-1,1-difluoro-3-(1H-tetrazol-1-yl)-1-(6-(4-(2,2,2-trifluoroethoxy)phenyl)pyridin-3-yl)propan-2-ol] |
| 1.5 to 4 µg/mL (≈ 3.43 to 9.14 µM) | OC(Cn1cnnn1)(c1ccc(F)cc1F)C(F)(F)c1ccc2c(Cl)cccc2n1 (centres unmarked) [Compound 31, 1-(5-Chloroquinolin-2-yl)-2-(2,4-difluorophenyl)-1,1-difluoro-3-(1H-tetrazol-1-yl)propan-2-ol] |
| ≤ 0.5 µg/mL | OC(Cn1cnnn1)(c1ccc(Cl)cc1F)C(F)(F)c1ccc2cc(Cl)ccc2n1 (stereo not drawn) [8(−), 2-(4-Chloro-2-fluorophenyl)-1-(6-chloroquinolin-2-yl)-1,1-difluoro-3-(1H-tetrazol-1-yl)propan-2-ol] |
| > 4 µg/mL | OC(Cn1ncnn1)(c1ccc(F)cc1F)C(F)(F)c1cnc(-c2ccc(F)cc2)cn1 (centres unmarked) [Compound 47, 2-(2,4-Difluorophenyl)-1,1-difluoro-1-(5-(4-fluorophenyl)pyrazin-2-yl)-3-(2H-tetrazol-2-yl)propan-2-ol] |
| ≤ 0.5 µg/mL | OC(Cn1cnnn1)(c1ccc(F)cc1F)C(F)(F)c1nc2ccccc2s1 (centres unmarked) [Compound 6, 1-(Benzo[d]thiazol-2-yl)-2-(2,4-difluorophenyl)-1,1-difluoro-3-(1H-tetrazol-1-yl)propan-2-ol] |
| 0.5 to 1.5 µg/mL (≈ 1.12 to 3.36 µM) | OC(Cn1cnnn1)(c1ccc(F)cc1F)C(F)(F)c1ccc(-c2ccc(F)cc2)cc1 (centres unmarked) [Compound 61, 2-(2,4-Difluorophenyl)-1,1-difluoro-1-(4′-fluoro-[1,1′-biphenyl]-4-yl)-3-(1H-tetrazol-1-yl)propan-2-ol] |
| 0.5 to 1.5 µg/mL (≈ 1.14 to 3.43 µM) | OC(Cn1ncnn1)(c1ccc(F)cc1F)C(F)(F)c1ccc2cc(Cl)ccc2n1 (centres unmarked) [Compound 16, 1-(6-Chloroquinolin-2-yl)-2-(2,4-difluorophenyl)-1,1-difluoro-3-(2H-tetrazol-2-yl)propan-2-ol] |
| 1.5 to 4 µg/mL (≈ 3.07 to 8.19 µM) | OC(Cn1cnnn1)(c1ccc(F)cc1F)C(F)(F)c1cnc2cc(OC(F)(F)F)ccc2n1 (centres unmarked) [Compound 54, 2-(2,4-Difluorophenyl)-1,1-difluoro-3-(1H-tetrazol-1-yl)-1-(6-(trifluoromethoxy)quinoxalin-2-yl)propan-2-ol] |
| 0.5 to 1.5 µg/mL (≈ 0.997 to 2.99 µM) | OC(Cn1cnnn1)(c1ccc(F)cc1F)C(F)(F)c1ccc2cc(OCC(F)(F)F)ccc2n1 (centres unmarked) [Compound 19, 2-(2,4-Difluorophenyl)-1,1-difluoro-3-(1H-tetrazol-1-yl)-1-(6-(2,2,2-trifluoroethoxy)quinolin-2-yl)propan-2-ol] |
| ≤ 0.5 µg/mL | OC(Cn1cnnn1)(c1ccc(F)cc1F)C(F)(F)c1cnc(-c2ccc(OCC(F)(F)F)cc2)cn1 (centres unmarked) [Compound 41, 2-(2,4-Difluorophenyl)-1,1-difluoro-3-(1H-tetrazol-1-yl)-1-(5-(4-(2,2,2-trifluoroethoxy)phenyl)pyrazin-2-yl)propan-2-ol] |
| 1.5 to 4 µg/mL (≈ 3.02 to 8.06 µM) | OC(Cn1cnnn1)(c1ccc(F)cc1)C(F)(F)c1cnc(-c2ccc(OC(F)(F)F)cc2)cn1 (centres unmarked) [Compound 45, 1,1-Difluoro-2-(4-fluorophenyl)-3-(1H-tetrazol-1-yl)-1-(5-(4-(trifluoromethoxy)phenyl)pyrazin-2-yl)propan-2-ol] |

| MIC | SMILES |
| --- | --- |
| 1.5 to 4 µg/mL (≈ 2.85 to 7.6 µM) | OC(Cn1cnnn1)(c1ccc(F)cc1F)C(F)(F)c1ccc(-c2ccc(OCC(F)(F)F)cc2)cc1 (centres unmarked) [Compound 60, 2-(2,4-Difluorophenyl)-1,1-difluoro-3-(1H-tetrazol-1-yl)-1-(4′-(2,2,2-trifluoroethoxy)biphenyl-4-yl)propan-2-ol] |
| 0.5 to 1.5 µg/mL (≈ 1.03 to 3.08 µM) | OC(Cn1cnnn1)(c1ccc(C(F)(F)F)cc1F)C(F)(F)c1ccc2cc(Cl)ccc2n1 (centres unmarked) [Compound 20, 1-(6-Chloroquinolin-2-yl)-1,1-difluoro-2-(2-fluoro-4-(trifluoromethyl)phenyl)-3-(1H-tetrazol-1-yl)propan-2-ol] |
| 1.5 to 4 µg/mL (≈ 3.43 to 9.16 µM) | OC(Cn1cnnc1)(c1ccc(F)cc1F)C(F)(F)c1ccc2cc(Cl)ccc2n1 (centres unmarked) [Compound 35, 1-(6-Chloroquinolin-2-yl)-2-(2,4-difluorophenyl)-1,1-difluoro-3-(4H-1,2,4-triazol-4-yl)propan-2-ol] |
| 1.5 to 4 µg/mL (≈ 2.97 to 7.93 µM) | OC(Cn1cnnn1)(c1ccc(C(F)(F)F)cc1Cl)C(F)(F)c1ccc2cc(Cl)ccc2n1 (centres unmarked) [Compound 22, 2-(2-Chloro-4-(trifluoromethyl)phenyl)-1-(6-chloroquinolin-2-yl)-1,1-difluoro-3-(1H-tetrazol-1-yl)propan-2-ol] |
| 0.5 to 1.5 µg/mL (≈ 1.16 to 3.49 µM) | C=Cc1ccc2nc(C(F)(F)C(O)(Cn3cnnn3)c3ccc(F)cc3F)cnc2c1 (centres unmarked) [Compound 59, 2-(2,4-Difluorophenyl)-1,1-difluoro-3-(1H-tetrazol-1-yl)-1-(6-vinylquinoxalin-2-yl)propan-2-ol] |
| 1.5 to 4 µg/mL (≈ 3.47 to 9.26 µM) | COc1ccc(C(O)(Cn2cnnn2)C(F)(F)c2ccc3cc(Cl)ccc3n2)cc1 (centres unmarked) [Compound 15, 1-(6-Chloroquinolin-2-yl)-1,1-difluoro-2-(4-methoxyphenyl)-3-(1H-tetrazol-1-yl)propan-2-ol] |
| ≤ 0.5 µg/mL | OC(Cn1cnnn1)(c1ccc(F)cc1F)C(F)(F)c1cnc(C#Cc2ccc(F)cc2)cn1 (centres unmarked) [Compound 50, 2-(2,4-Difluorophenyl)-1,1-difluoro-1-(5-((4-fluorophenyl)ethynyl)pyrazin-2-yl)-3-(1H-tetrazol-1-yl)propan-2-ol] |
| ≤ 0.5 µg/mL | OC(Cn1cnnn1)(c1ccc(F)cc1F)C(F)(F)c1ccc2c(Cl)c(Cl)ccc2n1 (centres unmarked) [Compound 29, 1-(5,6-Dichloroquinolin-2-yl)-2-(2,4-difluorophenyl)-1,1-difluoro-3-(1H-tetrazol-1-yl)propan-2-ol] |
| > 4 µg/mL | OC(Cn1cnnn1)(c1ccc(F)cc1F)C(F)(F)c1nccs1 (centres unmarked) [Compound 12, 2-(2,4-Difluorophenyl)-1,1-difluoro-3-(1H-tetrazol-1-yl)-1-(thiazol-2-yl)propan-2-ol] |
| 0.5 to 1.5 µg/mL (≈ 1.07 to 3.22 µM) | OC(Cn1cnnn1)(c1ccc(F)cc1F)C(F)(F)c1cnc(-c2ccc(F)c(F)c2)cn1 (centres unmarked) [Compound 44, 2-(2,4-Difluorophenyl)-1-(5-(3,4-difluorophenyl)pyrazin-2-yl)-1,1-difluoro-3-(1H-tetrazol-1-yl)propan-2-ol] |
| 1.5 to 4 µg/mL (≈ 3.35 to 8.92 µM) | OC(Cn1cnnn1)(c1ccc(F)cc1F)C(F)(F)c1ccc(-c2ccc(F)cc2)nn1 (centres unmarked) [Compound 58, 2-(2,4-Difluorophenyl)-1,1-difluoro-1-(6-(4-fluorophenyl)pyridazin-3-yl)-3-(1H-tetrazol-1-yl)propan-2-ol] |
| ≤ 0.5 µg/mL | OC(Cn1cnnn1)(c1ccc(F)c(F)c1)C(F)(F)c1ccc2cc(Cl)ccc2n1 (centres unmarked) [Compound 23, 1-(6-Chloroquinolin-2-yl)-2-(3,4-difluorophenyl)-1,1-difluoro-3-(1H-tetrazol-1-yl)propan-2-ol] |
| 1.5 to 4 µg/mL (≈ 3.55 to 9.47 µM) | OC(Cn1cnnn1)(c1ccc(F)cc1F)C(F)(F)c1cnc2cc(F)ccc2n1 (centres unmarked) [Compound 55, 2-(2,4-Difluorophenyl)-1,1-difluoro-1-(6-fluoroquinoxalin-2-yl)-3-(1H-tetrazol-1-yl)propan-2-ol] |
| ≤ 0.5 µg/mL | OC(Cn1cnnn1)(c1ccc(F)cc1F)C(F)(F)c1ccc2cc(F)ccc2n1 (centres unmarked) [Compound 17, 2-(2,4-Difluorophenyl)-1,1-difluoro-1-(6-fluoroquinolin-2-yl)-3-(1H-tetrazol-1-yl)propan-2-ol] |
| 0.5 to 1.5 µg/mL (≈ 1.08 to 3.23 µM) | OC(Cn1cnnn1)(c1ccc(F)cc1F)C(F)(F)c1cnc(-c2ccc(Cl)cc2)cn1 (centres unmarked) [Compound 40, 1-(5-(4-Chlorophenyl)pyrazin-2-yl)-2-(2,4-difluorophenyl)-1,1-difluoro-3-(1H-tetrazol-1-yl)propan-2-ol] |

| SMILES | MIC |
| --- | --- |
| OC(Cn1cnnn1)(c1ccc(F)cc1F)C(F)(F)c1cnc2cc(Cl)ccc2n1 (stereo not drawn) [10(−), 1-(6-Chloroquinoxalin-2-yl)-2-(2,4-difluorophenyl)-1,1-difluoro-3-(1H-tetrazol-1-yl)propan-2-ol] | ≤ 0.5 µg/mL |
